This note sets out measurements from US20070073056A1, “4-Substituted Pyrazoline Compounds, their Preparation and Use as Medicaments” (LABORATORIOS DEL DR. ESTEVE, S.A., priority 2005, published 2007).

Like-named read-outs stand apart in the source and are kept apart here.

In experiment [1] the target is recombinant human cannabinoid 1 receptor (CB1) (Homo sapiens, UniProt P21554). Nature of the experiment: [35S]GTPγS binding assay, antagonism to CB1-receptor (Pharmacological methods, part V). Type of experiment: biochemical. The conditions noted are these: compound at 1 μM against agonist WIN 55,212-2; 100% = effect of Rimonabant (1 μM); CHO membranes. As to the method: V. In vitro Determination of Antagonism to CB1-Receptor
recombinant human cannabinoid 1 receptor (CB1), sequence (P21554 whole entry): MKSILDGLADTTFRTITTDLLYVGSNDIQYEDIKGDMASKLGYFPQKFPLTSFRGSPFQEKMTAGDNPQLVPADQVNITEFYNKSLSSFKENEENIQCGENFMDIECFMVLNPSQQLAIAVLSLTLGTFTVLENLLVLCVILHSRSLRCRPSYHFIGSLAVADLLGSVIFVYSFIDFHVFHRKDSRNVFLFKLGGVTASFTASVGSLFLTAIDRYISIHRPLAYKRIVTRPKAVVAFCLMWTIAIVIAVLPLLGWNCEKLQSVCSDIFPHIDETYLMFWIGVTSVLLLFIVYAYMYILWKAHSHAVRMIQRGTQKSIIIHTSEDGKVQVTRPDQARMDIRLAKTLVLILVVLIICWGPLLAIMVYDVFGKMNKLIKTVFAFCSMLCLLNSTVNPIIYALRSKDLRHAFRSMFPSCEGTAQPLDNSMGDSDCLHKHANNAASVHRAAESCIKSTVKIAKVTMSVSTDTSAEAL
Chinese hamster ovary (CHO) cells stably expressing recombinant human cannabinoid 1 receptor (CB1) were cultured in nutrient mixture Ham's F 12 supplemented with 10% heat-inactivated fetal bovine serum, 2 mM L-glutamine, 50 U/ml penicillin, 50 U/ml streptomycin and 0.5 mg/ml geneticin. In order to obtain cells, culture flasks were washed twice with phosphate buffered saline and scraped. Then, cells were collected by centrifugation (200×g, 10 min) and stored dry at −80° C. Cells were homogenized in ice-cold 20 mM HE PES, 10 mM EDTA (pH 7.5) and centrifuged at 40,000×g for 15 min at 4° C. The pellet was resuspended in 20 mM HEPES, 0.1 mM EDTA (pH 7.5) and centrifuged for 15 min at 4° C. The final pellet was resuspended in 20 mM HEPES, 0.1 mM EDTA (pH 7.5), and divided in aliquots and stored at −80° C. until use.
[^35S]GTPγS Binding Assay:
The reaction was performed in 96-well plates. […] The incubation was terminated by rapid filtration through Millipore Multiscreen glass fiber FB, and rinsed two-times with ice-cold assay buffer. Filter plates were dried and 30 μl of scintillation liquid was added. Radioactivity was determined using Wallac Microbeta Trilux. Each experiment was performed at least in duplicate.
The average of basal [35S]GTPγS binding was subtracted from all binding data.
The antagonism of the pyrazoline compounds of general formula I to the CB1-receptor was determined according to the method described in Pharmacological methods, part V (table 2).

Experiment [2] has as its target CB1-receptor (UniProt P20272). Description: binding of the pyrazoline compounds to CB1-receptors (Pharmacological Methods, Part I). Set-up: IC50; species or system human or rat. Here is the method:
I. In-vitro Determination of Affinity to CB1/CB2-Receptors
The in-vitro determination of the affinity of the inventive 4-substituted pyrazoline compounds to CB1/CB2-Rezeptors is carried out as described in the publication of Ruth A. Ross, Heather C. Brockie et al., “Agonist-inverse agonist characterisation at CB1 and CB2 cannabinoid receptors of L-759633, L759656 and AM630”, British Journal of Pharmacology, 126, 665-672, (1999), whereby the transfected human CB1 and CB2 receptors of Receptor Biology, Inc. are used. The radioligand used for both receptors is [^3H]-CP55940. The respective parts of the description is hereby incorporated by reference and forms part of the present disclosure.
Rat Cerebellum CB1 Binding
Binding affinity to CB1 receptor was evaluated according to a modification of the method described by Govaerts et al., Eur J Pharmac Sci 23, 233-243 (2004). The respective parts of the description is hereby incorporated by reference and forms part of the present disclosure.
Briefly, cerebellum from male wistar rats (250-300 g) were carefully dissected on ice and homogenates were prepared with Potter-Helveheim in a cold 50 mM Tris-HCl solution containing 5 mM MgCl2, 1 mM EDTA and 0.25 M sucrose, pH 7.4. The suspension was centrifuged at […] for 5 minutes. The supernatants were collected and centrifuged 50,000×g for 15 minutes. The resulting pellets were then resuspended in Tris-HCl buffer without sucrose, homogenized and incubated for 15 min at 37° C. in an orbital shaker bath and centrifuged again at 50,000×g for 15 min. Pellets were weighted, resuspended in Tris-HCl buffer without sucrose, homogenized with Ultraturrax at 13,500 rpm for 3×5 seconds and alicuoted in 0.9 ml volumes in Eppendorf tubes. Alicuotes were centrifuged at 20,800×g for 5 minutes, supernatants discarded and pellets were frozen at −80° C. until use. Total protein concentration was determined using the Bio-Rad Lowry method based kit. Competitive binding experiments were performed in presence of 1 nM [^3H]-CP 55,940 in siliconized glass tubes containing 100 μg protein/tube resuspended in 1 ml final volume of 50 mM Tris-HCl, 5 mM MgCl2, 1 mM EDTA, 0.5% (w/v) bovine serum albumin, pH 7.4. Compounds were present at various concentrations and the non specific binding was determined in the presence of 10 μM HU-210. After 1 hour incubation at 30° C., the suspension was rapidly filtered through 0.5% PEI pre-treated GF/B fiber filters on a 96-well harvester and washed 3 times with 3 ml ice-cold binding buffer without bovine serum albumin. Radioactivity on filters was measured with Wallac Winspectral 1414 counter by liquid scintillation in 6 ml Ecoscint H (National Diagnostics, U.K.). Assays were made in triplicates.
Binding data were analyzed by non-linear regression with the software GraphPad Prism Version 3.03.
The binding of the pyrazoline compounds of general formula I to CB1-receptors was determined according to the method described in the section Pharmacological Methods, Part I.

Experiment [3] addresses CB1-receptor (UniProt P20272). The experiment is described as above. Set-up: other: 10^−7 M; other: 10^−8 M; species or system human or rat. A digest of the protocol: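 Rat cerebellum membranes (male Wistar), 100 μg protein, competed against 1 nM [3H]-CP 55,940 in 50 mM Tris-HCl, 5 mM MgCl2, 1 mM EDTA, 0.5% BSA, pH 7.4; 1 h at 30 °C. Non-specific binding with 10 μM HU-210; filtration and scintillation counting, triplicates, non-linear regression.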

[4] abbreviates: radioligand [3H]-CP55940, read-out: IC50.

Regarding `C[C@H]1C(C(=O)NN2CCCCC2)=NN(c2ccc(Cl)cc2Cl)[C@H]1c1ccc(Br)s1` (relative stereo) [Example 70, cis-5-(5-Bromo-thiophen-2-yl)-1-(2,4-dichloro-phenyl)-4-methyl-4,5-dihydro-1H-pyrazole-3-carboxylic acid piperidin-1-ylamide], in experiment [1], the Antagonism came out at 81%.

As a reminder, the IC50 is the concentration at which inhibition is half-maximal. `C[C@H]1C(C(=O)NC2CCCCCC2)=NN(c2ccc(Cl)cc2Cl)[C@H]1c1ccc(Br)cc1` (relative stereo) [Example 211, cis-5-(4-bromophenyl)-N-cycloheptyl-1-(2,4-dichlorophenyl)-4-methyl-4,5-dihydro-1H-pyrazole-3-carboxamide]: the IC50 in experiment [2] (setting [4]) was 30 nM. Besides, the Inhibition is on record as 69.8% in experiment [3] (10^−7 M) and 37.2 in experiment [3] (10^−8 M, in %).

As for `CC1CCCC(C)N1NC(=O)C1=NN(c2ccc(Cl)cc2Cl)[C@H](c2ccc(Cl)cc2)[C@@H]1C` (relative stereo) [Example 103, cis-5-(4-chlorophenyl)-1-(2,4-dichlorophenyl)-N-(2,6-dimethylpiperidin-1-yl)-4-methyl-4,5-dihydro-1H-pyrazole-3-carboxamide], the half-inhibitory concentration (IC50) in experiment [2] (setting [4]) was 60.6 nM. Besides, the Inhibition was found to be 55.3% in experiment [3] (10^−7 M) and 19.5 in experiment [3] (10^−8 M, in %).

As to `C[C@H]1C(C(=O)NN2CCCCCC2)=NN(c2ccc(Cl)cc2Cl)[C@H]1c1ccc(Cl)cc1.Cl` (relative stereo) [Example 96, cis-5-(4-Chlorophenyl)-1-(2,4-dichlorophenyl)-4-methyl-4,5-dihydro-1H-pyrazole-3-carboxylic acid azepan-1-ylamide hydrochloride], the IC50 in experiment [2] (setting [4]) was determined as 7.9 nM. In addition, the Inhibition in experiment [3] (10^−7 M) amounted to 80%; in experiment [3] (10^−8 M, in %), 65.

As for `CC1CCCCC1NC(=O)C1=NN(c2ccc(Cl)cc2Cl)[C@H](c2ccc(Cl)cc2)[C@@H]1C` (relative stereo) [Example 424, cis-5-(4-chlorophenyl)-1-(2,4-dichlorophenyl)-4-methyl-N-(2-methylcyclohexyl)-4,5-dihydro-1H-pyrazole-3-carboxamide], in experiment [2] (setting [4]), the IC50 was 29.7 nM. Moreover, the Inhibition was found to be 65.7% in experiment [3] (10^−7 M) and 39.3 in experiment [3] (10^−8 M, in %).

Regarding `CC1Cc2ccccc2N1NC(=O)C1=NN(c2ccc(Cl)cc2Cl)[C@@H](c2ccc(Cl)cc2)[C@H]1C` (relative stereo) [Example 113, cis-5-(4-chlorophenyl)-1-(2,4-dichlorophenyl)-4-methyl-N-(2-methylindolin-1-yl)-4,5-dihydro-1H-pyrazole-3-carboxamide], the IC50 in experiment [2] (setting [4]) worked out at 128 nM. Further, the Inhibition in experiment [3] (10^−7 M) amounted to 55.5%; in experiment [3] (10^−8 M, in %), 24.7.

As for `COc1ccc([C@@H]2[C@H](C)C(C(=O)NN3CCCCC3)=NN2c2ccc(Cl)cc2Cl)cc1.Cl` (relative stereo) [Example 265, cis-1-(2,4-dichlorophenyl)-5-(4-methoxyphenyl)-4-methyl-N-(piperidin-1-yl)-4,5-dihydro-1H-pyrazole-3-carboxamide hydrochloride], the IC50 in experiment [2] (radioligand [3H]-CP55940, hydrochloride, read-out: IC50) worked out at 60 nM. The Inhibition amounted to 62% in experiment [3] (10^−7 M) and 29.2 in experiment [3] (10^−8 M, in %).

With `C[C@@H]1C(C(=O)NN2CCCCC2)=NN(c2ccc(Cl)cc2Cl)[C@@H]1c1ccc(Br)cc1.Cl` (relative stereo) [Example 418, cis-5-(4-bromophenyl)-1-(2,4-dichlorophenyl)-4-methyl-N-(piperidin-1-yl)-4,5-dihydro-1H-pyrazole-3-carboxamide hydrochloride], the IC50 in experiment [2] (setting [4]) turned out to be 36 nM. For the same molecule, the Inhibition in experiment [3] (10^−7 M) came to 62.6%; in experiment [3] (10^−8 M, in %) it was 19.9.

On to `COc1ccc([C@@H]2[C@H](C)C(C(=O)NN3CCCCC3)=NN2c2ccc(Cl)cc2Cl)cc1` (relative stereo) [Example 410, cis-1-(2,4-dichlorophenyl)-5-(4-methoxyphenyl)-4-methyl-N-(piperidin-1-yl)-4,5-dihydro-1H-pyrazole-3-carboxamide], for which the IC50 in experiment [2] (setting [4]) was 82 nM. Also, the Inhibition in experiment [3] (10^−7 M) was 58.1%; in experiment [3] (10^−8 M, in %), 42.4.

With `C[C@H]1C(C(=O)O)=NN(c2ccc(Cl)cc2Cl)[C@H]1c1ccc(Cl)cc1` (racemic) [Example 19, cis-5-(4-Chloro-phenyl)-1-(2,4-dichloro-phenyl)-4-methyl-4,5-dihydro-1H-pyrazole-3-carboxylic acid], the Antagonism in experiment [1] was −18%. The Inhibition is on record as −3.6% in experiment [3] (10^−7 M) and −0.7 in experiment [3] (10^−8 M, in %).

As for `C[C@@H]1C(C(=O)NN2CCCCC2)=NN(c2ccc(Cl)cc2Cl)[C@@H]1c1cccs1.Cl` (relative stereo) [Example 430, cis-1-(2,4-dichlorophenyl)-4-methyl-N-(piperidin-1-yl)-5-(thiophen-2-yl)-4,5-dihydro-1H-pyrazole-3-carboxamide hydrochloride], the Antagonism in experiment [1] stood at 23%. Further, the IC50 in experiment [2] (setting [4]) is greater than 1000 nM.

Regarding `CC[C@@H]1C(C(=O)NN2CCCCC2)=NN(c2ccc(Cl)cc2Cl)[C@@H]1c1ccc(Cl)cc1` (relative stereo) [Example 432, cis-5-(4-chlorophenyl)-1-(2,4-dichlorophenyl)-4-ethyl-N-(piperidin-1-yl)-4,5-dihydro-1H-pyrazole-3-carboxamide], the Antagonism in experiment [1] is given as 89%. Also, in experiment [2] (setting [4]), the IC50 turned out to be 89 nM.

As to `C[C@@H]1C(C(=O)NN2CCCCC2)=NN(c2ccc(Cl)cc2Cl)[C@H]1c1ccccc1` (relative stereo) [Example 376, trans-1-(2,4-dichlorophenyl)-4-methyl-5-phenyl-N-(piperidin-1-yl)-4,5-dihydro-1H-pyrazole-3-carboxamide], in experiment [1], the Antagonism is reported as 75%. The IC50 in experiment [2] (setting [4]) was found to be 70.8 nM.

With `C[C@H]1C(C(=O)NN2CC3CCCC3C2)=NN(c2ccc(Cl)cc2Cl)[C@H]1c1ccc(Cl)cc1` (relative stereo) [Example 13, cis-5-(4-Chloro-phenyl)-1-(2,4-dichloro-phenyl)-4-methyl-4,5-dihydro-1H-pyrazole-3-carboxylic acid (hexahydro-cyclopenta[c]pyrrol-2-yl)-amide], in experiment [2] (setting [4]), the IC50 is 25.1 nM. The Inhibition in experiment [3] (10^−7 M) was 70.6%; in experiment [3] (10^−8 M, in %) it was 27.6.

`CC1CCCC(NC(=O)C2=NN(c3ccc(Cl)cc3Cl)[C@H](c3ccc(Cl)cc3)[C@@H]2C)C1` (relative stereo) [Example 423, cis-5-(4-chlorophenyl)-1-(2,4-dichlorophenyl)-4-methyl-N-(3-methylcyclohexyl)-4,5-dihydro-1H-pyrazole-3-carboxamide]: in experiment [2] (setting [4]), the IC50 was determined as 45.5 nM. Further, the Inhibition is 66.7% in experiment [3] (10^−7 M) and 33.1 in experiment [3] (10^−8 M, in %).
